# Experimental data: patent US10330683B2, “Mutant smoothened and methods of using the same” (Genentech, Inc., priority 2015, dated 2019)
# pIC50: −log10 of the molar value. Entries after “also recorded” stand apart in the source; their conditions may differ.
# Columns and labels:
# [1] = test system: PPT CGNPs expressing vismodegib-resistant SMO mutants; test: methyl-[3H]-thymidine incorporation (proliferation) of virally transduced PPT CGNPs after removal of SHH; type: cell-based, mice; details: 1 μM JQ1; FIG. 16B
# Description: (§1) It has previously been noted that Hh-driven tumor cells rapidly lose their Hh pathway dependence during culturing (Sasai et al., 2006). However, CGNPs proliferate in vivo in a Hh dependent manner and maintain their Hh pathway dependence in culture for a finite period (Wechsler-Reya and Scott, 1999). CGNPs isolated from Ptch1loxp/loxp Tp53loxp/loxp Rosa26LSL-tdTomato (PPT) pups were infected with lentiviral constructs expressing a SMO variant together with an enhanced green fluorescent protein (eGFP)-Cre fusion protein (FIG. 12C). The Cre recombinase induces loss of Ptch1 and thus ensures that only transduced CGNPs can proliferate in the absence of exogenous Sonic hedgehog ligand (SHH; FIG. 11D). […] Proliferation by methyl-[3H]-thymidine incorporation was monitored, while Cre-dependent tandem dimer (td) Tomato expression enabled visualization and quantification of infected cells. This system also enabled better model patient genetics because most of the SMO mutations were identified in tumors that harbored TP53 mutations and were driven by loss of PTCH1. […] It was confirmed that CGNPs were infected at similar frequencies by fluorescence-activated cell sorting (FACS) analysis for Cre-dependent tdTomato reporter expression, and that the SMO variants were expressed at equivalent levels by quantitative reverse transcription (qRT) PCR.
# (§2) Cerebella from post-natal day 5-7 Ptch1^loxp/loxp Rosa26^LSLtdTomato Tp53^loxp/loxp mice were dissociated in 0.05% Trypsin for 10 min at 37° C. Cells were collected by centrifugation at 514×g for 10 min at 4° C., resuspended in CGNP media (Neurobasal medium (Life Technologies) containing 1×B27 (without vitamin A; Life Technologies), 0.45% glucose (Sigma Aldrich), 25 mM KCl, 0.4% bovine serum albumin (Sigma Aldrich), 2 mM glutamine, 100 U/ml Penicillin (Life Technologies), 100 μg/ml Streptomycin (Life Technologies), 200 ng/ml octylated recombinant SHH) and filtered through a 0.45 μm filter (Falcon). Cells were plated in poly-D-lysine coated 6-well plates (Corning) at 5×10E5 cells/well and infected with lentivirus at a multiplicity of infection (MOI) of 1. After 24 hr, cells were harvested by trypsinization, collected in CGNP media and replated for downstream applications.
# (§3) To examine the effects of HPIs on proliferation, virally transduced CGNPs were plated in poly-D-lysine-coated 96-well plates (Corning) at 25,000 cells/well in CGNP media without SHH. […] After 24 hr, cells were pulsed with 1 μCi/ml methyl-[^3H]-thymidine (Amersham/GE Healthcare) and cultured for an additional 16-24 hr. Cells were harvested onto 96-well filter plates (Perkin Elmer) using a Filtermate Cell Harvester (Perkin Elmer), and incorporated radioactivity was quantified by liquid scintillation spectrophotometry on a TopCount NXT (PerkinElmer).
# [2] = test system: PPT CGNPs infected with SMO-WT and Cre; test: as above; type: cell-based, mice
# Description: as §1, §2, §3
# SMO-N219D [3] = details: cited from earlier work
# SMO-L221R = details: cited from earlier work
# SMO-D384N [4] = details: cited from earlier work
# SMO-S387N [5] = details: cited from earlier work
# SMO-A459V = molecular target: T1, SMO-A459V (Homo sapiens, UniProt Q99835, A459V); test: Gli-luciferase based Hh reporter assay in C3H10T½ cells transfected with SMO constructs; type: cell-based, mouse; details: GLI1 luciferase reporter, FIGS. 5A-5C
# T1 construct: expressed in transfected cells; host or cells: C3H10T½ cells (mouse)
# Experimental: (§4) SMO mutants were generated in pRK5-SMO vectors as described (Dijkgraaf et al., 2011; Yauch et al., 2009) and were either utilized in Gli-luciferase reporter assays as described (Dijkgraaf et al., 2011) or cloned into lentiviral vectors for transduction of primary CGNP cultures. Proliferation was assayed using methyl-[3H]-thymidine incorporation (Kool et al., 2014).
# (§5) C3H10T½ cells (ATCC) were seeded into six-well plates at 1.75×10E5 cells/well in DMEM High Glucose with 4 mM glutamine, 10 mM Hepes pH 7.2 and 10% FBS. After 16 h cells were transfected with 400 ng of expression construct, 400 ng of 9×-Gli-BS and 200 ng of pRL-TK per well using GeneJuice Transfection Reagent (Novagen). For the PTCH1 inhibition experiments, cells were transfected with 200 ng SMO expression construct and an additional 200 ng of DNA containing varying ratios of PTCH1 to empty vector. Six hours later, cells from one well were trypsinized and redistributed over four wells of a 12-well plate. After 16 hours the FBS content of the culture medium was reduced to 0.5% to induce formation of primary cilia, and small molecule Hh inhibitors were added at indicated concentrations. Firefly luciferase activity was determined 24 hours later with the Dual-Glo Luciferase Assay System (Promega) and read using a Wallac EnVision plate reader (Perkin Elmer). […]
# SMO-D384N [6] = molecular target: T2, SMO-D384N (Homo sapiens, UniProt Q99835, D384N); test: as above; type: cell-based; details: 1 μM vismodegib, FIG. 13C
# T2 construct: expressed in transfected cells; host or cells: C3H10T½ cells (mouse)
# Experimental: as §4
# as §5, with “Elmer). Values were divided by renilla luciferase activities to normalize for transfection efficiency. Individual experiments were carried out in duplicate or triplicate and repeated at least once. Dose response data were fit to a 4-parameter equation in GraphPad Prism:” for “Elmer).”
# (§6) The top and bottom (B) values were constrained to be […] for each sample. ‘H’ is the Hill Slope.
# SMO-N219D [7] = molecular target: T3, SMO-N219D (Homo sapiens, UniProt Q99835, N219D); test: as above; type: cell-based; details: 1 μM vismodegib, FIG. 13C
# T3 construct: expressed in transfected cells; host or cells: C3H10T½ cells (mouse)
# Experimental: as §4
# as §5, with “Elmer). Values were divided by renilla luciferase activities to normalize for transfection efficiency. Individual experiments were carried out in duplicate or triplicate and repeated at least once. Dose response data were fit to a 4-parameter equation in GraphPad Prism:” for “Elmer).”
# as §6
# SMO-S387N [8] = molecular target: T4, SMO-S387N (Homo sapiens, UniProt Q99835, S387N); test: as above; type: cell-based; details: 1 μM vismodegib, FIG. 13C
# T4 construct: expressed in transfected cells; host or cells: C3H10T½ cells (mouse)
# Experimental: as §4
# as §5, with “Elmer). Values were divided by renilla luciferase activities to normalize for transfection efficiency. Individual experiments were carried out in duplicate or triplicate and repeated at least once. Dose response data were fit to a 4-parameter equation in GraphPad Prism:” for “Elmer).”
# as §6
# SMO-I408V = molecular target: T5, SMO-I408V (Homo sapiens, UniProt Q99835, I408V); test: [3H]-vismodegib binding to HEK-293 cells transfected with SMO constructs; details: 5 nM [3H]-vismodegib, cell surface levels similar to SMO-WT, FIG. 12B
# T5 construct: expressed in transfected cells; host or cells: HEK-293 cells
# Experimental: as §4
# (§7) 2×10E6 HEK-293 cells were seeded into 10-cm plates and transfected 16 hours later with 3 μg of either empty vector or SMO expression construct using GeneJuice (Novagen). Cells were harvested 40 hours later in PBS with 1 mM EDTA and fixed in PBS with 4% PFA for 10 minutes at room temperature (RT), after which they were washed 3× in PBS with 1 mM EDTA and plated into 96-well plates at 100,000 cells per well. […] of MicroScint fluid (Perkin Elmer) was added per well and counts per minute were assessed using a PerkinElmer TopCount NXT. All samples were analyzed in triplicate.
# activating SMO mutants = test: as above; parameters: species or system human; details: all activating mutants tested; cell surface expression comparable to SMO-WT; FIG. 15C
# Experimental: as §4, §7
# [9] = test system: PPT CGNPs infected with SMO DBP mutations; test: methyl-[3H]-thymidine incorporation (proliferation) of virally transduced PPT CGNPs after removal of SHH; type: cell-based, mice; details: all DBP mutations; high levels of vismodegib (>1 μM); FIG. 12D
# Description: as §1, §2, §3
# [10] = test system: PPT CGNPs infected with SMO-C469Y; test: as above; type: cell-based, mice; details: 5 μM vismodegib
# Description: as §1, §2, §3
# [11] = test system: SMO-A459V expressing CGNPs; test: as above; type: cell-based, mice; details: high concentrations of vismodegib, FIGS. 14D and 15E
# Description: (§8) It has previously been noted that Hh-driven tumor cells rapidly lose their Hh pathway dependence during culturing (Sasai et al., 2006). However, CGNPs proliferate in vivo in a Hh dependent manner and maintain their Hh pathway dependence in culture for a finite period (Wechsler-Reya and Scott, 1999). CGNPs isolated from Ptch1loxp/loxp Tp53loxp/loxp Rosa26LSL-tdTomato (PPT) pups were infected with lentiviral constructs expressing a SMO variant together with an enhanced green fluorescent protein (eGFP)-Cre fusion protein (FIG. 12C). The Cre recombinase induces loss of Ptch1 and thus ensures that only transduced CGNPs can proliferate in the absence of exogenous Sonic hedgehog ligand (SHH; FIG. 11D). […] Proliferation by methyl-[3H]-thymidine incorporation was monitored, while Cre-dependent tandem dimer (td) Tomato expression enabled visualization and quantification of infected cells.
# as §2, with “After 24 hr, cells were harvested by trypsinization, collected in CGNP media and replated for downstream applications.” left out
# (§9) To examine the effects of HPIs on proliferation, virally transduced CGNPs were plated in poly-D-lysine-coated 96-well plates (Corning) at 25,000 cells/well in CGNP media without SHH. […] Cells were harvested onto 96-well filter plates (Perkin Elmer) using a Filtermate Cell Harvester (Perkin Elmer), and incorporated radioactivity was quantified by liquid scintillation spectrophotometry on a TopCount NXT (PerkinElmer).
# [12] = test system: SMO-T241M expressing CGNPs; test: as above; type: cell-based, mice; details: high concentrations of vismodegib, FIGS. 14D and 15E
# Description: as §8
# as §2, with “After 24 hr, cells were harvested by trypsinization, collected in CGNP media and replated for downstream applications.” left out
# as §9
# [13] = test system: SMOW535L expressing CGNPs; test: as above; type: cell-based, mice; details: high concentrations of vismodegib, FIGS. 14D and 15E
# Description: as §8
# as §2, with “After 24 hr, cells were harvested by trypsinization, collected in CGNP media and replated for downstream applications.” left out
# as §9
# SMO-L515A = SMO-L515A (Homo sapiens, UniProt Q99835, L515A); details: L515A expressed, activating; 1 mM vismodegib; cited from earlier work
# SMO-E518K and E518A = details: cited from earlier work
# [14] = test system: SMO-D473 mutants (all aa except P); details: cited from earlier work
# SMO-D473H = SMO-D473H (Homo sapiens, UniProt Q99835, D473H); details: cited from earlier work
# [15] = test system: metastatic and locally advanced BCC; details: cited from earlier work
# medulloblastoma = details: initial response; no durable response, relapse of the tumor; cited from earlier work
# T3 sequence (Q99835 28-787 N219D): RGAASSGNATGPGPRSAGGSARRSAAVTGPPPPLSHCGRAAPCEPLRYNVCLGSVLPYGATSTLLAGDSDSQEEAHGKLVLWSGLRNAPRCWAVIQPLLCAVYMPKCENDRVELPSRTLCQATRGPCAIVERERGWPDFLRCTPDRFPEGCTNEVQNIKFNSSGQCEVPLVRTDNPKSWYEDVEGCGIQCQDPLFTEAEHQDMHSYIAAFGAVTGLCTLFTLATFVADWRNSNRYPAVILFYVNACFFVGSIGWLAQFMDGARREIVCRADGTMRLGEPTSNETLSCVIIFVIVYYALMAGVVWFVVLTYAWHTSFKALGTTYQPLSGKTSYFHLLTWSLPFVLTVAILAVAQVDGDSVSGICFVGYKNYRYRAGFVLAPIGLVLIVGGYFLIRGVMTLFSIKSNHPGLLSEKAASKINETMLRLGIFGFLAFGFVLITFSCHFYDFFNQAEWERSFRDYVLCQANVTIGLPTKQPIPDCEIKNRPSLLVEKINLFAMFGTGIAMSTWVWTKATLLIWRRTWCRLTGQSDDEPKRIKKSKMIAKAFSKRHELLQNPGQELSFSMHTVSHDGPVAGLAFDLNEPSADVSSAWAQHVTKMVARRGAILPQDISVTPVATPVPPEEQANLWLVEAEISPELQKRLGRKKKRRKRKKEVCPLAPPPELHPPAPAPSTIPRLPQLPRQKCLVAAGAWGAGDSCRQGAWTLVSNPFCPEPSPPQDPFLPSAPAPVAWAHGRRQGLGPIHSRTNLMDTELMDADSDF
# T4 sequence (Q99835 28-787 S387N): as the sequence (Q99835 28-787 N219D) above, with D192N, S360N counted along it
# T2 sequence (Q99835 28-787 D384N): as the sequence (Q99835 28-787 N219D) above, with D192N, D357N counted along it
# SMO-D473H, sequence (Q99835 28-787 D473H): as the sequence (Q99835 28-787 N219D) above, with D192N, D446H counted along it
# T1 sequence (Q99835 28-787 A459V): as the sequence (Q99835 28-787 N219D) above, with D192N, A432V counted along it
# SMO-L515A, sequence (Q99835 28-787 L515A): as the sequence (Q99835 28-787 N219D) above, with D192N, L488A counted along it
# T5 sequence (Q99835 28-787 I408V): as the sequence (Q99835 28-787 N219D) above, with D192N, I381V counted along it
structure (smiles),measurement,setting,value
Cc1sc2c(c1C)C(c1ccc(Cl)cc1)=N[C@@H](CC(=O)OC(C)(C)C)c1nnc(C)n1-2 [JQ1],proliferation of PPT CGNPs expressing vismodegib-resistant SMO mutants,[1],reduced proliferation
same,residual proliferation in SMO-WT,"[2]; 1 μM JQ1 compared with 1 μM vismodegib, FIG. 16B",less residual proliferation
Cc1c(C(=O)Nc2ccc(N3C[C@@H](C)O[C@@H](C)C3)nc2)cccc1-c1ccc(OC(F)(F)F)cc1 [LDE-225],sensitivity to LDE-225,SMO-N219D [3],N219D reduced
same,sensitivity to LDE-225,SMO-L221R,L221R reduced
same,sensitivity to LDE-225,SMO-D384N [4],D384N reduced
same,sensitivity to LDE-225,SMO-S387N [5],S387N reduced
CS(=O)(=O)c1ccc(C(=O)Nc2ccc(Cl)c(-c3ccccn3)c2)c(Cl)c1 [vismodegib],sensitivity to vismodegib,SMO-A459V,decreased sensitivity
same,sensitivity to vismodegib compared to SMO-WT,SMO-D384N [6],reduced sensitivity; also recorded: D384N reduced
same,sensitivity to vismodegib compared to SMO-WT,SMO-N219D [7],reduced sensitivity; also recorded: N219D reduced
same,sensitivity to vismodegib compared to SMO-WT,SMO-S387N [8],reduced sensitivity; also recorded: S387N reduced
same,binding of [3H]-labeled vismodegib,SMO-I408V,impaired
same,vismodegib binding,activating SMO mutants,impaired
same,proliferation in the presence of vismodegib,[9],continuing to proliferate
same,proliferation in the presence of vismodegib,[10],continued to proliferate at near untreated levels
same,pIC50,"[2]; Mus musculus, SMO-WT and Cre, FIG. 12D",~7.66
same,vismodegib concentration at which proliferation was maximally inhibited,[2]; SMO-WT and Cre,100 nM
same,proliferation in the presence of vismodegib,[11],continued to proliferate
same,proliferation in the presence of vismodegib,[12],continued to proliferate
same,proliferation in the presence of vismodegib,[13],continued to proliferate
same,inhibition by vismodegib,SMO-L515A,"activating, sensitive"
same,sensitivity to vismodegib,SMO-E518K and E518A,reduced sensitivity to
same,sensitivity to vismodegib,[14],reduce sensitivity to
same,drug binding in vitro,SMO-D473H,abrogate drug binding
same,clinical response of BCC patients treated with vismodegib,"[15]; majority of BCC patients, complete and partial responses",clinical benefit
same,advanced BCC patients that develop resistance to vismodegib,"[15]; within the first year of treatment, preliminary estimate",up to 20%
same,response of a patient to treatment,medulloblastoma,dramatic response
